Source: patent US8278304B2, “Substituted 4-hydroxypyrimidine-5-carboxamides” (Merck Sharp & Dohme Corp., priority 2008, dated 2012)
Structures can show the parent of a compound that is named as a salt.

Target: T1, PHD2 (Homo sapiens, UniProt Q9GZT9)
T1 construct: FLAG-tagged full length PHD2 expressed in and purified from baculovirus-infected Sf9 cells; FLAG; made in house; host or cells: baculovirus-infected Sf9 cells
Experiment: PHD2 / HIF-1α peptide hydroxylation assay, time resolved fluorescence (VHL complex detection)
Assay type: biochemical
Settings: FLAG-tagged full length PHD2; 0.2 μM 2-oxoglutarate, 0.5 μM HIF-1α peptide; read-out: PHD2 Activity (PHD2 binding activity expressed as IC50 (nM))
Summary of the method: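 Sf9-expressed FLAG-tagged full-length PHD2 (0.15 μg/ml) preincubated with compound 30 min at room temperature in Tris pH 7.4 buffer with 10 μM ferrous sulfate, 1 mM ascorbate and catalase. Reaction started with 0.2 μM 2-oxoglutarate and 0.5 μM biotinylated HIF-1α peptide (final); hydroxylation detected by time-resolved fluorescence via VHL complex binding.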

T1 sequence (Q9GZT9 whole entry): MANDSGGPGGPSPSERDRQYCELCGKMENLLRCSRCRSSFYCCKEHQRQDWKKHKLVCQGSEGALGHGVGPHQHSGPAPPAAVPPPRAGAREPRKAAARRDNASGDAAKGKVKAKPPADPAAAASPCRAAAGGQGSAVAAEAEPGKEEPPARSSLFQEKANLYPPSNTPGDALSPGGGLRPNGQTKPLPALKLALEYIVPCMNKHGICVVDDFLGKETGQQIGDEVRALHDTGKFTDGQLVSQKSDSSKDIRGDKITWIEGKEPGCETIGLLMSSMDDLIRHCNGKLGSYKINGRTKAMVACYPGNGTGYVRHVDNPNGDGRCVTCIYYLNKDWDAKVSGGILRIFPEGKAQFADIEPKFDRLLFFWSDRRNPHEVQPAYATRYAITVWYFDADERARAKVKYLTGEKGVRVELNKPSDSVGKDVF

| IC50 [nM] | Compound |
| --- | --- |
| 10 to 100 | COC(=O)c1ccc(CNC(=O)c2cnc(-n3cccn3)nc2O)cc1 [Example 103, methyl 4-[({[4-hydroxy-2-(1H-pyrazol-1-yl)pyrimidin-5-yl]carbonyl}amino)methyl]benzoate] |
| 10 to 100 | Cc1nc(-c2ncc(C(=O)NCc3ccc(Cl)cc3Cl)c(O)n2)cs1 [Example 37, N-(2,4-dichlorobenzyl)-4-hydroxy-2-(2-methyl-1,3-thiazol-4-yl)pyrimidine-5-carboxamide] |
| 10 to 100 | O=C(NC1CCCCC1)c1cnc(-c2cccnn2)nc1O [Example 135, N-cyclohexyl-4-hydroxy-2-(pyridazin-3-yl)pyrimidine-5-carboxamide] |
| 10 to 100 | CC(NC(=O)c1cnc(-c2ccccn2)nc1O)c1ccc(F)cc1 (centres unmarked) [Example 12, N-[1-(4-fluorophenyl)ethyl]-4-hydroxy-2-pyridin-2-ylpyrimidine-5-carboxamide] |
| 1000 to 10000 | Cc1cccc(-c2ncc(C(=O)Nc3ccc(F)cc3Cl)c(O)n2)n1 [Example 16, N-(2-chloro-4-fluorophenyl)-4-hydroxy-2-(6-methylpyridin-2-yl)pyrimidine-5-carboxamide] |
| 100 to 1000 | O=C(NCc1ccc(F)cc1)c1cnc(-c2ccccn2)nc1O [Example 7, N-(4-fluorobenzyl)-4-hydroxy-2-pyridin-2-ylpyrimidine-5-carboxamide] |
| 100 to 1000 | O=C(NCc1ccc(F)cc1)c1cnc(-c2cnccn2)nc1O [Example 18, N-(4-fluorobenzyl)-4-hydroxy-2-pyrazin-2-ylpyrimidine-5-carboxamide] |
| ≤ 10 | O=C(N[C@H](c1ccccc1)[C@@H](O)c1ccccc1)c1cnc(-n2cccn2)nc1O [Example 120, 4-hydroxy-N-[(1R,2S)-2-hydroxy-1,2-diphenylethyl]-2-(1H-pyrazol-1-yl)pyrimidine-5-carboxamide] |
| ≤ 10 | O=C(NCc1ccc(-c2cccc(F)c2)nc1)c1cnc(-n2cccn2)nc1O [Example 107, N-{[6-(3-fluorophenyl)pyridin-3-yl]methyl}-4-hydroxy-2-(1H-pyrazol-1-yl)pyrimidine-5-carboxamide trifluoroacetate (salt)] |
| ≤ 10 | COc1ccc(C(NC(=O)c2cnc(-c3cccnn3)nc2O)c2ccc(C#N)cc2)cc1 (single isomer, unassigned) [Example 151, N-[(4-cyanophenyl)(4-methoxyphenyl)methyl]-4-hydroxy-2-(pyridazin-3-yl)pyrimidine-5-carboxamide] |
| ≤ 10 | Cc1csc(C(C)NC(=O)c2cnc(-n3cccn3)nc2O)n1 (centres unmarked) [Example 117, 4-hydroxy-N-[1-(4-methyl-1,3-thiazol-2-yl)ethyl]-2-(1H-pyrazol-1-yl)pyrimidine-5-carboxamide hydrochloride] |
| ≤ 10 | COc1ccc(C(NC(=O)c2cnc(-c3cccnn3)nc2O)c2ccc(Cl)nc2)cc1 (centres unmarked) [Example 169, N-[(6-chloropyridin-3-yl)(4-methoxyphenyl)methyl]-4-hydroxy-2-(pyridazin-3-yl)pyrimidin-5-carboxamide] |
| ≤ 10 | COc1ccc(C(NC(=O)c2cnc(-c3ccccn3)nc2O)c2ccc(OC)cc2)cc1 [Example 14, N-[bis(4-methoxyphenyl)methyl]-4-hydroxy-2-pyridin-2-ylpyrimidine-5-carboxamide] |
| ≤ 10 | CC[C@H](NC(=O)c1cnc(-n2cc(C)cn2)nc1O)c1ccccc1 [Example 133, 4-hydroxy-2-(4-methyl-1H-pyrazol-1-yl)-N-[(1S)-1-phenylpropyl]pyrimidine-5-carboxamide] |
| ≤ 10 | COc1ccc(C(NC(=O)c2cnc(-c3cccnn3)nc2O)c2ccc(OC)cc2OC)c(OC)c1 [Example 174, N-[bis(2,4-dimethoxyphenyl)methyl]-4-hydroxy-2-(pyridazin-3-yl)pyrimidine-5-carboxamide] |
| ≤ 10 | CC(C)(NC(=O)c1cnc(-n2cccn2)nc1O)c1ccc(Br)cc1 [Example 92, N-[1-(4-bromophenyl)-1-methylethyl]-4-hydroxy-2-(1H-pyrazol-1-yl)pyrimidine-5-carboxamide] |
| ≤ 10 | O=C(NCc1ccc2c(c1)CCO2)c1cnc(-n2cccn2)nc1O [Example 101, N-(2,3-dihydro-1-benzofuran-5-ylmethyl)-4-hydroxy-2-(1H-pyrazol-1-yl)pyrimidine-5-carboxamide] |
| ≤ 10 | COCc1ccc(C(NC(=O)c2cnc(-c3cccnn3)nc2O)c2ccc(OC)cc2)cc1 (single isomer, unassigned) [Example 183, 4-Hydroxy-N-[[4-(methoxymethyl)phenyl](4-methoxyphenyl)methyl]-2-pyridazin-3-ylpyrimidine-5-carboxamide] |
| ≤ 10 | C[C@H](NC(=O)c1cnc(-n2cccn2)nc1O)c1ccc(Oc2ccccc2)cc1 [Example 129, 4-hydroxy-N-[(1S)-1-(4-phenoxyphenyl)ethyl]-2-(1H-pyrazol-1-yl)pyrimidine-5-carboxamide] |
| ≤ 10 | C[C@H](NC(=O)c1cnc(-n2cccn2)nc1O)c1ccc(Br)cc1 [Example 91, N-[(1S)-1-(4-bromophenyl)ethyl]-4-hydroxy-2-(1H-pyrazol-1-yl)pyrimidine-5-carboxamide] |
| ≤ 10 | CCCC(NC(=O)c1cnc(-n2cccn2)nc1O)c1ccc(-c2ccccc2)cc1 (centres unmarked) [Example 165, N-[1-(biphenyl-4-yl)butyl]-4-hydroxy-2-(1H-pyrazol-1-yl)pyrimidine-5-carboxamide] |
| ≤ 10 | CCC(CC)(NC(=O)c1cnc(-n2cccn2)nc1O)c1ccccc1 [Example 98, N-(1-ethyl-1-phenylpropyl)-4-hydroxy-2-(1H-pyrazol-1-yl)pyrimidine-5-carboxamide] |
| ≤ 10 | CC(C)C(NC(=O)c1cnc(-n2cccn2)nc1O)c1ccccc1 (centres unmarked) [Example 131, 4-hydroxy-N-(2-methyl-1-phenylpropyl)-2-(1H-pyrazol-1-yl)pyrimidine-5-carboxamide] |
| ≤ 10 | O=C(NC(c1ccccc1)c1ccccn1)c1cnc(-n2cccn2)nc1O (centres unmarked) [Example 125, 4-hydroxy-N-[phenyl(pyridin-2-yl)methyl]-2-(1H-pyrazol-1-yl)pyrimidine-5-carboxamide trifluoroacetate (salt)] |
| 10 to 100 | O=C(NCc1ccc(C(F)(F)F)nc1)c1cnc(-n2cccn2)nc1O [Example 10] |
| ≤ 10 | CC(C)(NC(=O)c1cnc(-n2cccn2)nc1O)c1ccc(C(F)(F)F)nc1 [Example 74, 4-Hydroxy-N-{1-methyl-1-[6-(trifluoromethyl)pyridin-3-yl]ethyl}-2-(1H-pyrazol-1-yl)pyrimidine-5-carboxamide] |
| ≤ 10 | COc1ccc(C(NC(=O)c2cnc(-c3cccnn3)nc2O)c2ccc(C#N)cc2)cc1 (single isomer, unassigned) [Example 150, N-[(4-cyanophenyl)(4-methoxyphenyl)methyl]-4-hydroxy-2-(pyridazin-3-yl)pyrimidine-5-carboxamide] |
| ≤ 10 | O=C(N[C@H](c1ccccc1)[C@H](O)c1ccccc1)c1cnc(-c2cccnn2)nc1O [Example 139, 4-hydroxy-N-[(1R,2R)-2-hydroxy-1,2-diphenylethyl]-2-(pyridazin-3-yl)pyrimidine-5-carboxamide] |
| ≤ 10 | COc1ccc(C(NC(=O)c2cnc(-c3cccnn3)nc2O)c2ccc3cc(OC)ccc3n2)cc1 (centres unmarked) [Example 172, 4-hydroxy-N-[(4-methoxyphenyl)(6-methoxyquinolin-2-yl)methyl]-2-(pyridazin-3-yl)pyrimidine-5-carboxamide] |
